In general, GI50 refers to the concentration at which growth is held to half of that of the control. Read a low GI50 as more potent growth inhibition.

This note sets out measurements from ChEMBL document CHEMBL1158733, “Iso-, nor-, and dinor-spiculoic acids A, polyketides from the marine sponge Plakortis zyggompha” (2005).

The source made the active and inactive calls. The calls are words filed in the database; no cut-off is given here.

Common to all, as to type: functional
The subject of assay [1] is HT-29. The assay is described as follows: Cytotoxicity against human HT-29 cells SRB assay.
For assay [2], the system named is MDA-MB-231. Kind of assay: Cytotoxicity against human MDA-MB-231 cells SRB assay. A general note: In SRB staining, fixed cells bind dye roughly in proportion to their protein.
The test system of assay [3] is A549. The assay is described as follows: Cytotoxicity against human A549 cells SRB assay.

Regarding `CC[C@@]1(/C=C/c2ccccc2)C=C(C)[C@H]2[C@@H]([C@@H](C)C(=O)[C@@H]2C)[C@]1(CC)C(=O)O`, the outcome in assay [1], in assay [2] and in assay [3] was inactive.
For `CCC1=C[C@](/C=C/c2ccccc2)(CC)[C@@](CC)(C(=O)O)[C@H]2[C@H]1[C@@H](CC)C(=O)[C@@H]2C` [ISOSPICULOIC ACID A], the GI50 was 15 µM in assay [1], more than 25 µM in assay [2] and 15 µM in assay [3].
With `CCC1=C[C@](/C=C/c2ccccc2)(CC)[C@@](CC)(C(=O)O)[C@H]2[C@H]1[C@@H](C)C(=O)[C@@H]2C` [NOR-SPICULOIC ACID A], the GI50 in assay [1] is 15 µM; in assay [2] it was more than 25 µM; in assay [3] it was 15 µM.
